Consider 13 compounds from patent publication US20250263370A1 (Tay Therapeutics Limited, priority 2022, published 2025).

Usually IC50 stands for the concentration at which inhibition is half-maximal. For orientation: solubility (thermodynamic) means the concentration in solution at equilibrium with solid.

For one series, the target named is BRD4 BD1 (Homo sapiens (Human), UniProt O60885). The series is described as follows: NanoBRET bromodomain assay, NanoLuc-BRD4-BD1 fusion in HEK293 cells. Type of series: cell-based. As to conditions: top concentration 10 μM. For orientation: BRET reads energy transfer from a luciferase to a nearby fluorophore.
Series [1] in a line: Intrinsic clearance in liver microsomes, rat. Format: in vitro ADME. Particulars: Method 1; for Half-Life (T1/2) (min), Rat: rat liver microsomes; for half-life at 1 μM: rat, liver microsomes, pH 7.4, rat liver microsomes, read-out: Half-Life (T1/2) (min), Rat. The method, then: (§1) From stock solution of compound on 10 mM DMSO, a working solution of 0.1 mM is prepared by diluting the compound in DMSO. 6.25 μL of a 20 mg/mL solution of microsomes in PBS pH 7.4 buffer is added to 216.25 μL PBS pH 7.4 buffer (final microsome concentration—0.5 mg/mL). 25 μL of 10 mM solution of NADPH in PBS pH 7.4 buffer is added to the incubations (final NADPH concentration—1 mM). The mixture is pre-warmed to 37° C. for 10 minutes. 2.5 μL of test compound working solution is added (final compound concentration—1 μM with 1% DMSO). Aliquots of 30 μL are taken from the reaction solution at 0.5, 5, 15, 30 and 60 minutes. The reaction was stopped by the addition of 5 volumes of cold acetonitrile with IS (100 nM alprazolam, 200 nM caffeine and 100 nM tolbutamide). Samples were centrifuged at 3, 220 g for 40 minutes. Aliquots of 100 μL of the supernatant are mixed with 100 μL of ultra-pure H2O and used for LC-MS/MS analysis. The percent compound remaining at each time point is calculated with respect to that of the 0.5 min sample. The data are analysed to calculate half-life. Control experiments are run without NADPH and blank samples are prepared using DMSO without the test compound.
(§2) A 50 mM stock solution (in DMSO) is prepared for the compound. From the stock solution, a working solution of 0.5 mM is prepared by diluting the compound in DMSO. This concentration of working solution is prepared considering a final concentration of 1 uM with 0.1% DMSO. The compound (1 μL of working solution) is spiked in PBS with pH 7.4 ([…]) at a concentration of 1 μM. Subsequently, 110 μL of 10 mM NADPH is added (as a co-factor). The sample is incubated at 37° C. for 15 min. Following this, pre-warmed liver microsomes (27.5 μL; final protein conc. 0.5 mg/mL) are added. The samples are then incubated at 37° C. Aliquots of samples are withdrawn at 0, 5, 15, 30, 45 and 60 min. The reaction is stopped by using chilled acetonitrile containing internal standard. The samples are centrifuged, and the supernatants analysed by LC-MS/MS. The percent compound remaining at each time point is calculated with respect to that of the 0 min sample. The data are then analysed to calculate half-life and intrinsic clearance (CLint). Control experiments are run without NADPH and blank samples are prepared using DMSO without the test compound.

Series [2] in a line: Thermodynamic solubility in FaSSIF pH 6.5 buffer. Particulars: Method 1 (UV-vis, 25° C., 24 hrs); for solubility thermodynamic at 24 h: FaSSIF buffer, 25 °C, pH 6.5, fassif, thermodynamic from solid. Type of series: physicochemical. The method, then:
FaSSIF v2 buffer is freshly prepared prior to use according to the suppliers' instructions and the pH adjusted to 6.5 using 1 M NaOH or 1 M HCl as required. From 1 mM working solution of test compound in DMSO, the λmax of the test compound is determined by scanning from 200 nm to 700 nm, in 1 nm steps with an EPOCH UV/Visible spectrophotometer (Biotek Instruments Inc.). A 12-point standard curve of compound concentration versus absorption at λmax is generated via two-fold serial dilutions of the 1 mM working solution with DMSO. Approximately 1 mg of test compound is accurately weighed into an Eppendorf tube and the appropriate volume of FaSSIF buffer is added to make a nominal concentration of 1 mg/mL. The tube is incubated on a rotator at 20 rpm, 25° C. for 24 hrs. Samples are then filtered using 0.45 μm filters (Sartorious, CAT #1776C) and the filtrate subjected to UV-vis spectroscopy analysis. The absorption at λmax is compared to the standard curve to determine the concentration of compound in solution after 24 hours.
FaSSIF buffer was prepared according to the suppliers' instructions and the pH adjusted to 6.5 using 1 M NaOH or 1 M HCl as required. […] A stir stick was added to each vial and vials sealed with a moulded PTDE/SIL 96-well plate cover. The plate was shaken at 25° C. at 1,100 rpm using an Eppendorf Thermomixer Comfort plate shaker. The plates were filtered using a vacuum manifold and diluted with a mixture of H2O and acetonitrile containing internal standard. The concentration of the test compound in the filtrate was determined by LCMS analysis with reference to the internal standards to determine the solubility in the buffer.

The next series concerns the target BRD4 BD2 (Homo sapiens (Human), UniProt O60885). The series is described as follows: NanoBRET bromodomain assay, NanoLuc-BRD4-BD2 fusion in HEK293 cells.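 As to all read-outs here: tracer displacement BRET read in transfected cells after 2 h compound exposure at 37 °C, signal in milliBRET units corrected against no-tracer background wells.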 As to conditions: for IC50: BRD4 BD2 (IC50), NanoBRET, HEK293 cells, top concentration 10 μM; for Fold selectivity: IC50 for BRD4 BD1 divided by IC50 for BRD4 BD2, qualitative if an IC50 is at the upper limit.
Series [3] can be described thus: Sprague-Dawley rat pharmacokinetics, IV and PO cassette dosing. Type of series: in vivo. Particulars: for PO F: PO 5 mg/kg. An outline of the steps: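 Male Sprague-Dawley rats (2 per arm) given up to 5 compounds in cassette, 1 mg/kg IV and 5 mg/kg PO, formulated in 5% DMSO/40% PEG-400/55% water. Plasma from serial blood samples was acetonitrile-precipitated and analysed by LC/MS/MS against matrix-matched standard curves.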

Series [4] is described as follows: Intrinsic clearance in liver microsomes, mouse. Format: in vitro ADME. Particulars: pH 7.4, Method 2, read-out: Half-Life (T1/2) (min), Mouse. The method, then: as §1, §2

SMILES strings stand for the structures. Converted amounts (≈) assume the structure as drawn.

For `CNC(=O)c1[nH]c(C(=O)NC2CCC(F)(F)CC2)cc1OC(C)c1ccccc1` (single isomer, unassigned) [Example 104, N^5-(4,4-difluorocyclohexyl)-N^2-methyl-3-(1-phenylethoxy)-1H-pyrrole-2,5-dicarboxamide], the figures for the IC50 on BRD4 BD1 and at BRD4 BD2 were not below 10 µM and more than 10 µM, respectively. Also, the “Half-Life (T1/2) (min), Rat” value in series [1] came out at 10 min. Also, the “Thermodynamic Solubility FaSSIF pH 6.5 (μM)” value in series [2] is on record as 47 μM. Moreover, the Fold selectivity entry on BRD4 BD2 was “— (Fold ≥0 and ≤2)”.
`CNC(=O)c1[nH]c(C(=O)NC2CCC2)cc1OC(C)c1ccccc1` (single isomer, unassigned) [Example 102, N^5-cyclobutyl-N^2-methyl-3-(1-phenylethoxy)-1H-pyrrole-2,5-dicarboxamide] had an IC50 on BRD4 BD1 not below 10 µM. Further, in series [1], the half-life at 1 μM was 41 min. Also, in series [3] (Method 1), the “PO F” value amounted to 13%. Also, the half-life in series [3] (male, Sprague-Dawley, rat, plasma, iv, 1 mg/kg, IV 1 mg/kg, Method 1, read-out: IV T1/2 (converted)) is 2.7 h. Moreover, the solubility (thermodynamic) at 24 h in series [2] was 188 µM (≈ 64.2 µg/mL). At BRD4 BD2, the IC50 is more than 10 µM; the Fold selectivity entry was “— (Fold ≥0 and ≤2)”.
In turn, `CNC(=O)c1[nH]c(C(=O)NC2CCC(F)(F)CC2)cc1OC(C)c1ccccc1` (single isomer, unassigned) [Example 103, N^5-(4,4-difluorocyclohexyl)-N^2-methyl-3-(1-phenylethoxy)-1H-pyrrole-2,5-dicarboxamide] returned a concentration for half-maximal inhibition (IC50) on BRD4 BD1 not below 10 µM. The half-life at 1 μM in series [1] is 19 min. This compound also gave a solubility (thermodynamic) at 24 h in series [2] of 57 µM (≈ 23.1 µg/mL). On BRD4 BD2, the IC50 was in the range of 0.05 to 0.2 µM; the Fold selectivity entry was “XX (Fold >50 and ≤200)”.
As for `CNC(=O)c1[nH]c(C(=O)N[C@H]2CC[C@H](OC)CC2)cc1OC(C)c1ccccc1` (single isomer, unassigned) [Example 99, N^5-(trans-4-methoxycyclohexyl)-N^2-methyl-3-(1-phenylethoxy)-1H-pyrrole-2,5-dicarboxamide], the IC50 against BRD4 BD1 was not below 10 µM. For the same compound, in series [1], the “Half-Life (T1/2) (min), Rat” value is 39 min. The solubility (thermodynamic) at 24 h in series [2] came to 359 µM (≈ 143 µg/mL). Besides, at BRD4 BD2, the IC50 is 0.05 to 0.2 µM; the Fold selectivity result was “XX (Fold >50 and ≤200)”.
At BRD4 BD1, `CNC(=O)c1[nH]c(C(=O)N[C@@H]2CCOC2)cc1O[C@@H](C)c1ccccc1` [Example 114, N^2-methyl-3-((S)-1-phenylethoxy)-N^5-((R)-tetrahydrofuran-3-yl)-1H-pyrrole-2,5-dicarboxamide] gave an IC50 not below 10 µM. Moreover, the half-life at 1 μM in series [4] was more than 60 min. Further, at BRD4 BD2, the half-maximal inhibitory concentration (IC50) was in the range of 0.2 to 1 µM; the Fold selectivity result is “X (Fold >2 and ≤50)”.
Compound `CNC(=O)c1[nH]c(C(=O)N[C@H]2CC[C@H](O)CC2)cc1OC(C)c1ccccc1` (single isomer, unassigned) [Example 98, N^5-(trans-4-hydroxycyclohexyl)-N^2-methyl-3-(1-phenylethoxy)-1H-pyrrole-2,5-dicarboxamide] displayed an IC50 on BRD4 BD1 not below 10 µM. Also, in series [1], the “Half-Life (T1/2) (min), Rat” value was more than 60 min. Besides, the “IV T1/2” value in series [3] (IV 1 mg/kg, Method 1) was determined as 1.2 h. In series [3] (Method 1), the “PO F” value was 31%. Also, the “Thermodynamic Solubility FaSSIF pH 6.5 (μM)” value in series [2] is on record as 429 μM. Besides, on BRD4 BD2, the half-inhibitory concentration (IC50) was more than 10 µM; the Fold selectivity entry was “— (Fold ≥0 and ≤2)”.
As to `CNC(=O)c1[nH]c(C(=O)NC(C)C)cc1O[C@@H](C)c1ccccc1` [Example 105, (S)—N^5-isopropyl-N^2-methyl-3-(1-phenylethoxy)-1H-pyrrole-2,5-dicarboxamide], the IC50 against BRD4 BD1 was not below 10 µM. In series [4], the half-life at 1 μM is more than 60 min. In addition, at BRD4 BD2, the IC50 fell in the range of 0.2 to 1 µM; the Fold selectivity result was “X (Fold >2 and ≤50)”.
`CNC(=O)c1[nH]c(C(=O)NC2COC2)cc1O[C@@H](C)c1ccccc1` [Example 107, (S)—N^2-methyl-N^5-(oxetan-3-yl)-3-(1-phenylethoxy)-1H-pyrrole-2,5-dicarboxamide] gave an IC50 against BRD4 BD1 not below 10 µM. For the same compound, in series [4], the half-life at 1 μM was more than 60 min. Moreover, at BRD4 BD2, the IC50 lay in the range of 0.05 to 0.2 µM; the Fold selectivity result was “XX (Fold >50 and ≤200)”.
In the case of `CNC(=O)c1[nH]c(C(=O)N[C@H]2CC[C@H](OC)CC2)cc1OC(C)c1ccccc1` (single isomer, unassigned) [Example 100, N^5-(trans-4-methoxycyclohexyl)-N^2-methyl-3-(1-phenylethoxy)-1H-pyrrole-2,5-dicarboxamide], on BRD4 BD1, the IC50 was not below 10 µM. In addition, the “Half-Life (T1/2) (min), Rat” value in series [1] is reported as 19 min. Further, the “Thermodynamic Solubility FaSSIF pH 6.5 (μM)” value in series [2] is reported as 377 μM. Also, on BRD4 BD2, the IC50 was more than 10 µM; the Fold selectivity entry is “— (Fold ≥0 and ≤2)”.
In the case of `CNC(=O)c1[nH]c(C(=O)N[C@H]2CCC(F)(F)C2)cc1O[C@@H](C)c1ccccc1` [Example 110, N^5-((S)-3,3-difluorocyclopentyl)-N^2-methyl-3-((S)-1-phenylethoxy)-1H-pyrrole-2,5-dicarboxamide], the 50% inhibitory concentration (IC50) against BRD4 BD1 is not below 10 µM. Moreover, the half-life at 1 μM in series [4] is more than 60 min. In addition, at BRD4 BD2, the IC50 fell in the range of 0.2 to 1 µM; the Fold selectivity result is “X (Fold >2 and ≤50)”.
For `CNC(=O)c1[nH]c(C(=O)N[C@H]2CCOC2)cc1O[C@@H](C)c1ccccc1` [Example 113, N^2-methyl-3-((S)-1-phenylethoxy)-N^5-((S)-tetrahydrofuran-3-yl)-1H-pyrrole-2,5-dicarboxamide], the figures for the IC50 against BRD4 BD1 and against BRD4 BD2 were not below 10 µM and 0.2 to 1 µM, respectively. Also, in series [4], the half-life at 1 μM was more than 60 min. At BRD4 BD2, the Fold selectivity entry is “X (Fold >2 and ≤50)”.
Compound `CNC(=O)c1[nH]c(C(=O)N[C@H]2C[C@H](O)C2)cc1O[C@@H](C)c1ccccc1` [Example 108, N^5-(trans-3-hydroxycyclobutyl)-N^2-methyl-3-((S)-1-phenylethoxy)-1H-pyrrole-2,5-dicarboxamide] registered an IC50 at BRD4 BD1 not below 10 µM. Further, the half-life at 1 μM in series [4] was more than 60 min. Also, at BRD4 BD2, the IC50 lay in the range of 0.05 to 0.2 µM; the Fold selectivity result is “XX (Fold >50 and ≤200)”.
The compound `CNC(=O)c1[nH]c(C(=O)N[C@@H]2CC[C@@H](O)C2)cc1O[C@@H](C)c1ccccc1` (racemic) [Example 116, N^5-(trans-3-hydroxycyclopentyl)-N^2-methyl-3-((S)-1-phenylethoxy)-1H-pyrrole-2,5-dicarboxamide] yielded an IC50 on BRD4 BD1 not below 10 µM. Besides, the half-life at 1 μM in series [4] is more than 60 min. The Fold selectivity entry on BRD4 BD2 is “XX (Fold >50 and ≤200)”.
